The structures appear in SMILES notation. Numbers after ± are expanded uncertainties.

For the series the following is noted: 298.15 K; 101.33 kPa; Liquid.

Broadly, the mass density is the mass of a sample divided by its volume. As for `COC(C)(C)C` [2-methoxy-2-methylpropane], the mass density came out at 735.99 ± 0.86 kg/m3. The result for `CC1CCCO1` (centres undefined) [2-methyltetrahydrofuran] reads 848.1 ± 0.73 kg/m3; that for `CCCCCCCC` [octane], 698.73 ± 0.86 kg/m3. The result for `C1CCOC1` [tetrahydrofuran] reads 882.09 ± 0.64 kg/m3.

These data come from the NIST ThermoML archive (doi:10.1016/j.jct.2005.07.017).
